Reference: patent publication US11364242B2, “Treatment agents for inhibiting HIV and cancer in HIV infected patients” (UNIVERSITY OF MARYLAND, BALTIMORE, priority 2015, dated 2022)
Read-outs that look alike come from different tables or passages of the source.

What was measured:
[1] = system: multidrug-resistant HIV molecular clone NL4329129-2; assay: PBL infectivity assay, multidrug resistant clone; assay type: cell-based; conditions: Human immunodeficiency virus 1, 168 h
Protocol: FIG. 2A-2B are bar graphs that illustrate how INK128 inhibits replication of multidrug resistant HIV molecular clone NL4329129-2. Activated PBLs were infected for 2 hours using a MOI of 0.001. Infected cells were cultured in IL-2 medium and the indicated concentrations of INK128. On day 7, virus production was measured by p24 ELISA in the culture supernatants (FIG. 2A), and cell viability was measured by MTT (FIG. 2B) according to an embodiment.
PBLs were isolated from buffy coats of HIV seronegative donors (New York Blood Center). The laboratory-adapted strains HIV BaL and HIV HXB2; primary isolates HIV 92BR020, 92UG031, 93BR029, and 93UG082; and multidrug resistant molecular clone NL4329129-2 were obtained from the NIH AIDS Repository. […] Proliferation of PBLs was measured by the MTT kit (Roche), following the manufacturer's directions. […]
PBLs were separated from buffy coats by density centrifugation over Ficoll-Hypaque (Sigma™), and activated by culture in the presence of 1 μg/mL anti-human CD3 antibody (clone x35, Fisher Scientific™) and 2 μg/mL anti-human CD28 antibody (Clone CD28.6, eBioscience™) for 3 days. […] On day 7, viral replication was measured by p24 ELISA (Coulter) in culture supernatants and cell viability was measured by MTT assays.
EC50 values were determined by variable slope nonlinear regression analysis. […]

HIV-1 2044 = assay: PBL infectivity assay, primary isolate; assay type: cell-based; conditions: Human immunodeficiency virus 1, PBMC; X4 primary isolate, PBMCs, three donors; read-out: Geometric mean INK128 EC50, nM (95% CI)
Source text: (§1) PBLs were isolated from buffy coats of HIV seronegative donors (New York Blood Center). The laboratory-adapted strains HIV BaL and HIV HXB2; primary isolates HIV 92BR020, 92UG031, 93BR029, and 93UG082; and multidrug resistant molecular clone NL4329129-2 were obtained from the NIH AIDS Repository. Primary isolate 2044 was from Paul Clapham (Windeyer Institute), and 1633 and 1638 from the Institute of Human Virology (University of Maryland School of Medicine). Maraviroc, efavirenz, raltegravir, and indinavir were from the NIH AIDS Repository. INK128 was purchased from ApexBio. Proliferation of PBLs was measured by the MTT kit (Roche), following the manufacturer's directions. PBL infectivity assays were performed as described herein.
(§2) PBLs were separated from buffy coats by density centrifugation over Ficoll-Hypaque (Sigma™), and activated by culture in the presence of 1 μg/mL anti-human CD3 antibody (clone x35, Fisher Scientific™) and 2 μg/mL anti-human CD28 antibody (Clone CD28.6, eBioscience™) for 3 days. Activated cells were infected by incubation with virus at a multiplicity of infection (MOI) of 0.001 for 2 hours. Infected cells were washed three times with PBS and cultured in 5% CO2 at 37° C., in RPMI/10% FBS supplemented with 100 units/mL IL-2 (Roche™) and antiviral drugs, in 96-well flat-bottom plates at a density of […] PBLs per 200 μL. Following 3 d of culture, half of the medium was replaced with fresh medium containing IL-2 and antiviral drugs. On day 7, viral replication was measured by p24 ELISA (Coulter) in culture supernatants and cell viability was measured by MTT assays.
(§3) EC50 values were determined by variable slope nonlinear regression analysis. Unpaired two-tailed t tests were used to check for statistical significant differences between INK128 EC50 values of R5 HIV versus X4 HIV in infectivity assays. Nonparametric Mann-Whitney tests were used to compare each treatment group and control group in animal studies. Statistical analyses were performed using GraphPad Prism™ (version 4.0). P<0.05 was considered significant.
(§4) The antiviral activity of INK128 was investigated in PBLs infected with CCR5 (R5)-tropic and CXCR4 (X4)-tropic HIV reference strains BaL and HXB2, respectively.

HIV-1 93UG082 = assay: PBL infectivity assay, primary isolate; assay type: cell-based; conditions: Human immunodeficiency virus 1, PBMC; R5 primary isolate, PBMCs, three donors; read-out: Geometric mean INK128 EC50, nM (95% CI)
Source text: as §1, §2, §3, §4

HIV-1 92UG031 = assay: PBL infectivity assay, primary isolate; assay type: cell-based; conditions: Human immunodeficiency virus 1, PBMC; R5 primary isolate, PBMCs, three donors; read-out: Geometric mean INK128 EC50, nM (95% CI)
Source text: as §1, §2, §3, §4

HIV-1 1633 = assay: PBL infectivity assay, primary isolate; assay type: cell-based; conditions: Human immunodeficiency virus 1, PBMC; X4 primary isolate, PBMCs, three donors; read-out: Geometric mean INK128 EC50, nM (95% CI)
Source text: as §1, §2, §3, §4

HIV-1 92BR020 = assay: PBL infectivity assay, primary isolate; assay type: cell-based; conditions: Human immunodeficiency virus 1, PBMC; R5 primary isolate, PBMCs, three donors; read-out: Geometric mean INK128 EC50, nM (95% CI)
Source text: as §1, §2, §3, §4

HIV-1 1638 = assay: PBL infectivity assay, primary isolate; assay type: cell-based; conditions: Human immunodeficiency virus 1, PBMC; X4 primary isolate, PBMCs, three donors; read-out: Geometric mean INK128 EC50, nM (95% CI)
Source text: as §1, §2, §3, §4

HIV-1 93BR029 = assay: PBL infectivity assay, primary isolate; assay type: cell-based; conditions: Human immunodeficiency virus 1, PBMC; R5 primary isolate, PBMCs, three donors; read-out: Geometric mean INK128 EC50, nM (95% CI)
Source text: as §1, §2, §3, §4

[2] = system: R5 and X4 HIV, laboratory-adapted and primary isolates; assay: Infectivity assays in primary PBLs, summary over strains; assay type: cell-based
Protocol: as §2, §4

R5 HIV (JRFL) = assay: Real-time PCR of early reverse transcription products and integrated HIV DNA in infected PBLs; assay type: cell-based; conditions: 72 hours, PBLs from two donors
Protocol: Activated PBLs were infected with R5 and X4 HIV strains using a MOI of 0.01. Infected cells were cultured in the presence of IL-2 and different concentrations of INK128. Cell aliquots were collected at 16 and 72 hours for analyses of early products of reverse transcription and of integration, respectively, by real time PCR. Detection of early products of reverse transcription was done with primers specific for the R/U5 region (60). For detection of integrated HIV DNA, a real-time nested Alu-HIV PCR assay was used as previously described (61, 62), with the modifications described herein.
DNA was isolated using Miniblood kit (Qiagen™). PCR amplification was performed using Quantitect SYBR Green™ PCR Kit (Qiagen™) in a LightCycler™ (Biorad™). Detection of early products of reverse transcription was done in reactions containing 100 ng of DNA and the primer pair 5′-[…]-3′ (SEQ ID NO. 1) and 5′-[…]-3′ (SEQ ID NO. 2) (R/U5 region) (60). […] Amplified products were analyzed by denaturation/renaturation to verify the specific Tm. The PCR cycle at which the signal entered the exponential range was used for quantification, and HIV copy numbers were corrected for those of α-tubulin. […] As a standard curve for relative quantification of integrated DNA, the Alu-gag was first run using serial dilutions of DNA isolated from HIV infected PBLs (diluted in HIV-negative DNA). […]

CD4 = assay: Flow cytometry quantitation of surface receptor on PBLs; conditions: IL-2, 7 days, three donors

Structure (SMILES): CC(C)n1nc(-c2ccc3oc(N)nc3c2)c2c(N)ncnc21 [INK128, 5-(4-amino-1-propan-2-ylpyrazolo[3,4-d]pyrimidin-3-yl)-1,3-benzoxazol-2-amine]
- EC50 [1]: 10.9 nM
- EC50 (HIV-1 2044): 36.7 nM
- EC50 (HIV-1 93UG082): 2.89 nM
- EC50 (HIV-1 92UG031): 10.2 nM
- EC50 (HIV-1 1633): 17.5 nM
- EC50 (HIV-1 92BR020): 1.03 nM
- EC50 (HIV-1 1638): 21.2 nM
- EC50 (HIV-1 93BR029): 4.73 nM
- EC50 ([2]; Human immunodeficiency virus 1, Lymphocyte, both R5 and X4 HIV in primary lymphocytes): < 50 nM
- EC50 ([2]; Human immunodeficiency virus 1, read-out: EC50s ranging, R5 primary isolates, three donors): 2.9 to 10.1 nM
- EC50 ([2]; Human immunodeficiency virus 1, read-out: EC50s ranging, X4 primary isolates, three donors): 17.5 to 36.7 nM
- integrated provirus (R5 HIV (JRFL)): decreased levels
- CD4 receptor levels (CD4): did not impact
